Results as given in US20130345243A1, “1H-PYROLLO[3,2-D]PYRIMIDINEDIONE DERIVATIVES” (GLAXOSMITHKLINE LLC, priority 2011, published 2013).

Legend:
ob/ob and db/db mice = settings: 8 day administration; cited from earlier work
Human recombinant AMPK = test: AMPK Enzymatic Assay (Z'Lyte FRET); assay type: biochemical; settings: ATP 100 μM, peptide 2 μM, means of at least 2 independent experiments
Description: Human recombinant AMPK (Invitrogen #PV4673 & #PV4675) is used in a FRET assay format (Z'Lyte—Invitrogen). Assay conditions are as follow: ATP 100 μM, peptide (Invitrogen # PR8650) 2 μM, 1% final DMSO in Z'Lyte kinase buffer. Reaction is initiated by addition of 0.2-0.8 ng of AMPK and incubated for 1-hour @ 30° C. A further 1-hour incubation @ 30° C. with the development reagent (Invitrogen # PR5194) is performed. FRET signal is then measured and converted to “% peptide phosphorylation” according to Z'Lyte given calculation procedure. Evaluation of compounds is carried out using concentration-response curves. Final data are expressed in “% activation” calculating the ratio of “% peptide phosphorylation” between compound-condition and basal-condition. Alternatively pEC200 (−Log(compound concentration leading to a 2-fold AMPK activity increase)) is produced through fitting of the concentration-response curves. All data are means of at least 2 independent experiments.

In the case of NC(=O)c1ncn([C@@H]2O[C@H](CO)[C@@H](O)[C@H]2O)c1N [AICAR], the reduces blood glucose (ob/ob and db/db mice) is listed as 35%.

Cl.Nc1nc(-c2ccc(-n3c(Cl)cc4[nH]c(=O)n(-c5cccc(C(=O)O)c5)c(=O)c43)cc2)cs1 [Example 11, 3-(5-(4-(2-Aminothiazol-4-yl)phenyl)-6-chloro-2,4-dioxo-1H-pyrrolo[3,2-d]pyrimidin-3(2H,4H,5H)-yl)benzoic acid hydrochloride] gave a pEC50 (Human recombinant AMPK) of 6.2.

In the case of Nc1nc(-c2ccc(-n3c(Cl)cc4[nH]c(=O)n(-c5ccccc5F)c(=O)c43)cc2)cs1 [Example 12, 5-[4-(2-Amino-1,3-thiazol-4-yl)phenyl]-6-chloro-3-(2-fluorophenyl)-1H-pyrrolo[3,2-d]pyrimidine-2,4(3H,5H)-dione], the pEC50 (Human recombinant AMPK) is reported as 6.1.
